According to the NIST ThermoML archive (doi:10.1016/j.fluid.2007.01.021):
Numbers after ± are expanded uncertainties.

How the values were obtained:
[1] = refractive index (Na D-line) (dimensionless); conditions: 293.15 K; 101.33 kPa; Liquid; Standard Abbe refractometry
[2] = 293.15 K; 101.33 kPa; Liquid

`O` [water] showed a refractive index [1] of 1.3326 ± 0.0006 and a mass density [2] of 998.4 ± 0.5 kg/m3.
Work on `CCCCCOC(C)=O` [pentyl ethanoate] yielded a refractive index [1] of 1.4026 ± 0.0006 and a mass density [2] of 875 ± 0.8 kg/m3.
For `CCCO` [propan-1-ol], the refractive index [1] was 1.385 ± 0.0006 and the mass density [2] was 803.5 ± 1 kg/m3.
For `CC(=O)OC1CCCCC1` [cyclohexyl ethanoate], the refractive index [1] was 1.4422 ± 0.0006 and the mass density [2] was 968.2 ± 0.5 kg/m3.
`OC1CCCCC1` [cyclohexanol] showed a refractive index [1] of 1.4639 ± 0.0006 and a mass density [2] of 962.3 ± 0.6 kg/m3.
